Measured values as given in the NIST ThermoML archive (doi:10.1021/je050294+).
Numbers after ± are expanded uncertainties.

Details: 101.33 kPa, Liquid; for speed of sound: Linear variable-path acoustic interferometer

CCCCO [butan-1-ol]
mass density (283.15 K): 817.48 ± 0.23 kg/m3
speed of sound (283.15 K): 1292.2 ± 1.4 m/s
mass density (298.15 K): 806.17 ± 0.23 kg/m3
speed of sound (298.15 K): 1240.7 ± 1.4 m/s
mass density (313.15 K): 794.51 ± 0.24 kg/m3
speed of sound (313.15 K): 1191.4 ± 1.4 m/s

C=C1CCC2CC1C2(C)C (stereo not drawn) [β-pinene]
mass density (283.15 K): 878.97 ± 0.55 kg/m3
speed of sound (283.15 K): 1355.9 ± 1.8 m/s
mass density (298.15 K): 866.99 ± 0.55 kg/m3
speed of sound (298.15 K): 1295 ± 1.8 m/s
mass density (313.15 K): 854.89 ± 0.56 kg/m3
speed of sound (313.15 K): 1237.4 ± 1.7 m/s

CCC(C)O (stereo not drawn) [butan-2-ol]
mass density (283.15 K): 815.11 ± 0.59 kg/m3
speed of sound (283.15 K): 1266.6 ± 1.7 m/s
mass density (298.15 K): 803 ± 0.6 kg/m3
speed of sound (298.15 K): 1212.4 ± 1.7 m/s
mass density (313.15 K): 790.06 ± 0.61 kg/m3
speed of sound (313.15 K): 1158 ± 1.7 m/s
